Data set [1] has as its system Th1/Th2 and inflammatory cytokine responses. The data set can be described thus: Splenic lymphocyte frequency and whole organ cytokines in infected DKA mice. The format is in vivo. The procedure: Splenic lymphocyte frequencies were determined as we have previously described (Spellberg et al., Infect. Immun. 71:5756-5764 (2003)). In brief, splenic homogenates were passed through 70 μm filters followed by RBC lysis with 0.15 M ammonium chloride. The cells were fixed with Cytofix™ buffer (BD Pharmingen®), permeabilized with Cytoperm™ buffer (BD Pharmingen), and stained with 10 μg/ml of FITC-conjugated anti-mouse CD4 (clone RM4-5), PE-conjugated anti-mouse IFN-γ (clone XMG1.2) or isotype control (clone R-34), allophycocyanin (APC)-conjugated anti-mouse IL-4 (clone 11B11) or isotype control (clone R3-34), or APC-conjugated anti-mouse IL-10 (clone JES5-16E3) or isotype control (clone A95-1) (all from BD Pharmingen). In separate experiments, the frequency of CD4+CD25+foxp3+T-regulatory cells were determined using the Mouse Regulatory T cell Staining™ Kit (eBioscience®) per the manufacturer's recommendation. The frequency of apoptosis was determined using the Annexin FITC Apoptosis™ kit (BD Pharmingen®).
Cells were washed and three-color flow cytometry was performed on a Becton-Dickinson FACScan™ instrument calibrated with CaliBRITE™ beads (BD Pharmingen) using FACSComp™ software as per the manufacturer's recommendations. During data acquisition, CD4+lymphocytes were gated by concatenation of forward and side scatter, and FITC-anti-CD4 antibody fluorescence properties. Data for each sample were acquired until 10,000 CD4+lymphocytes were analyzed.
Spleens and kidneys were homogenized in 1 ml of PBS. The homogenates were pelleted at maximum speed on a tabletop centrifuge at 4° C. The supernatants were assayed for cytokines using the Cytometric Bead Array Murine Inflammatory Cytokine™ kit (BD Pharmingen) per the manufacturer's instructions.
Because of the alterations in inflammatory cellular influx seen in kidneys of mice treated with saturating ferric chloride vs. iron chelation, in this example we determined the impact of deferasirox therapy on Th1/Th2 and inflammatory cytokine responses in infected mice. Diabetic ketoacidotic mice were infected with 3.1×10^4 spores of R. oryzae 99-892 as above and treated with deferasirox, deferasirox plus ferric chloride, or placebo. On day four of infection, spleens and kidneys were processed for intracellular and whole organ cytokine determination.

For data set [2] the following is noted: cited from earlier work.
For data set [3], the system named is R. oryzae. Put plainly: Survival of diabetic ketoacidotic (DKA) mice infected with R. oryzae. The format is in vivo, BALB/c male mice. The following applies: DKA mice; for survival compared to controls: 2.2×10^4 spores R. oryzae 99-892, 1, 3, or 10 mg/kg bid for seven days; for 28 day survival: R. oryzae 99-892. The procedure:
Briefly, for in vivo infection, BALB/c male mice (>20 g) were rendered diabetic with a single i.p. injection of 210 mg/kg streptozotocin in 0.2 ml citrate buffer 10 days prior to fungal challenge. […] Mice were infected through the tail vein with the appropriate inocula of R. oryzae. To confirm the inocula, dilutions were streaked on PDA plates and colonies were counted following a 24 h incubation period at room temperature. The primary efficacy endpoint was time to death. As a secondary endpoint, brain fungal burden (the primary target organ) was determined by homogenization by rolling a pipette on organs placed in Whirl-Pak bags (Nasco, Fort Atkinson, Wis.) containing 2 ml saline. The homogenate was serially diluted in 0.85% saline and then quantitatively cultured on PDA. Values were expressed as log 10 cfu g^−1 tissue. All procedures involving mice were approved by the institutional animal use and care committee, following the National Institutes of Health guidelines for animal housing and care.
Deferiprone (Apotex Research Inc.) was dissolved in iron-free water and administered intraperitoneally at 50, 100, or 200 mg/kg qd or qod (every other day). Treatment was begun 24 h post infection and continued for a total of 4 doses. Control groups were treated with the diluent, 5% dextrose water.
Deferiprone is known to form molecular complexes with ferric iron (^3+Fe) in a 1:3 ratio of iron to deferiprone. Based on the known molecular weights of ferric chloride (FeCl3, molecular weight 162.22 g/mol) and deferiprone (molecular weight 139 g/mol), a 60 mg/kg dose of FeCl3 was calculated to result in a significant excess of ^3+Fe vs. a 100 mg/kg dose of deferiprone given to an 18 g mouse: ^3+Fe moles=(0.060 g/kg*0.018 kg [mouse weight]/162.22 g/mol)=6.5×10^−6 mol vs. deferiprone moles=(0.1 g/kg*0.018 kg [mouse weight]/139 g/mol)=1.3×10^−5 mol Ratio=1:2 moles of ^3+Fe to deferiprone, which is more than that required to achieve a saturating 1:3 ratio.
Statistical analysis was performed using the nonparametric log rank test was used to determine differences in survival times of the mice. Differences in tissue fungal burdens in the infected organs were compared by the nonparametric Steel test for multiple comparisons. P values of <0.05 were considered significant.
Deferasirox (Novartis Pharmaceuticals, Basel, Switzerland) was suspended in 0.5% hydroxypropylcellulose (Klucel) and administered by oral gavage at 1, 3, or 10 mg/kg […] (qd) or every other day (qod). Treatment was begun 24 h post infection and continued for a total of 5 or 7 doses. Control groups were treated with the diluent, 5% dextrose water and 0.5% Klucel. In some experiments, a saturating dose of free iron was administered with deferasirox. Deferasirox is known to form molecular complexes with ferric iron (^3+Fe) in a 1:2 ratio of iron to deferasirox. Based on the known molecular weights of ferric chloride (FeCl3, molecular weight 162.22 g/mol) and deferasirox (molecular weight 373.4 g/mol), a 2.8 mg/kg dose of FeCl3 was calculated to result in a significant excess of ^3+Fe vs. a 10 mg/kg dose of deferasirox given to an 18 g mouse: ^3+Fe moles=(0.0028 g/kg*0.018 kg [mouse weight]/162.22 g/mol)=3×10^−7 mol vs. deferasirox moles=(0.01 g/kg*0.018 kg [mouse weight]/373.4 g/mol)=5×10^−7 mol Ratio=1:1.7 moles of ^3+Fe to deferasirox, which is more than that required to achieve a saturating 1:2 ratio.
The nonparametric log rank test was used to determine differences in survival times of the mice. Differences in tissue fungal burdens, splenic lymphocyte frequencies, and whole organ cytokines in the infected organs were compared by the Mann Whitney U test. P values of <0.05 were considered significant.

Setting [4] is: R. oryzae 99-892, between the groups.
The mark [5] stands for this setting: R. oryzae 99-892, vs saturating iron or placebo.

Where two headings read alike, the source gives them in different places.

As for `O=C(O)c1ccc(-n2nc(-c3ccccc3O)nc2-c2ccccc2O)cc1` [Deferasirox, 4-[3,5-Bis(2-hydroxyphenyl)-1H-1,2,4-triazol-1-yl]-benzoic acid], in data set [1] (3.1×10^4 spores R. oryzae 99-892, day four, vs saturating ferric chloride or placebo), the “Th1 and Th2 splenocyte frequencies” value is given as “significant increase”. Further, the “kidney level of IFN-γ” value in data set [1] (R. oryzae 99-892) is “significantly higher”. Moreover, in data set [1] (setting [4]), the “frequencies of CD4+IL-10+ or CD4+CD25+foxp3+ splenocytes” value is “not significantly different”. For the same molecule, in data set [1] (setting [4]), the splenocyte apoptosis entry is reported as “no significant difference”. The “splenic level of IFN-γ” value in data set [1] (setting [5]) was “significantly higher”. Also, the “splenic level of TNF” value in data set [1] (setting [5]) was “significantly higher”. The toxicity result in data set [2] (iron-overloaded marmosets, doses up to 400 mg/kg/d) is given as “virtually no toxicity”; in data set [2] (non-iron overloaded marmosets, 39 weeks, up to 40 mg/kg/d), “no toxicities”; in data set [2] (non-iron-overloaded marmosets, chronic administration, 80 mg/kg), “severe toxicity”. The tolerability entry in data set [2] (non-iron overloaded marmosets, subacute treatment (4 weeks), up to 65 mg/kg/d) is reported as “well tolerated with no adverse effects”. Also, the “time to death compared to placebo” value in data set [3] (1.3×10^3 spores R. oryzae 99-880, 10 mg/kg bid seven days) is “significantly improved time to death”. Moreover, the results for the “survival compared to controls” value in data set [3] and in data set [3] (listed as Exjade) were “significantly improved survival” and “improves survival”, respectively. Further, the survival in data set [3] (R. oryzae 99-880, Deferasirox 10 mg/kg po twice daily, LAmB 15 mg/kg iv once daily 4 doses, or both, placebo 0%) came to 25%. Moreover, the 28 day survival in data set [3] (1 mg/kg bid oral gavage 7 days, placebo 0%, p=0.03) is 29%; in data set [3] (3 mg/kg bid oral gavage 7 days, placebo 0%, p=0.049) it was 40%; in data set [3] (10 mg/kg bid oral gavage 7 days, placebo 0%, p=0.01), 57%. The “protective effect on administration of free iron” value in data set [3] (deferasirox plus saturating ferric chloride) is “reversed”.

These data come from patent US20100129434A1, “COMPOSITIONS AND METHODS FOR THE TREATMENT OF MUCORMYCOSIS AND OTHER FUNGAL DISEASES” (priority 2006, published 2010).
